SMILES strings stand for the structures.

This assay addresses T1, SIRT1 (Homo sapiens, UniProt Q96EB6).
T1 sequence (Q96EB6 1-747): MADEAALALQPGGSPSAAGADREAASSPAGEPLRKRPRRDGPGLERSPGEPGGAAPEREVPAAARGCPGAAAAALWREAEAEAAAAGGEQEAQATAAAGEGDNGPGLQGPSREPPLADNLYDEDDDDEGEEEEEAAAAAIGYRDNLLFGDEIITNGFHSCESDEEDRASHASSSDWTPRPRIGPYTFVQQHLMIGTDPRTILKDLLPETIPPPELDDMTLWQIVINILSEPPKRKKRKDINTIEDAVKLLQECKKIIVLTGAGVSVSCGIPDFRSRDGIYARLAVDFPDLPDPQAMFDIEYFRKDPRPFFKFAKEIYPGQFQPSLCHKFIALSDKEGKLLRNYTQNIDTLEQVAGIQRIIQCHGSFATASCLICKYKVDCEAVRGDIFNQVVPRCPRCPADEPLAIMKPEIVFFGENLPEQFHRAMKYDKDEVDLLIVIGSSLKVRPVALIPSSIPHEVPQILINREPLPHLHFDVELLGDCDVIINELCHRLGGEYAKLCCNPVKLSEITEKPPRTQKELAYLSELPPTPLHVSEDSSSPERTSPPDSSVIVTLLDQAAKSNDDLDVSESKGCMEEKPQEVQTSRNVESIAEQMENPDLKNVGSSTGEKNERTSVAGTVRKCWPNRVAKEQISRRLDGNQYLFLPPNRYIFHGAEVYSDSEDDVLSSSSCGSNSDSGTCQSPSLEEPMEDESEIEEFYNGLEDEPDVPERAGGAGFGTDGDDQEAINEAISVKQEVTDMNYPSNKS
The assay can be described thus: Trp mass spectrometry assay of SIRT1 activation. The assay is classed as biochemical. The following applies: Trp peptide Ac-R-H-K-K(Ac)-W-NH2 0.5 μM, 120 μM βNAD+, 10 nM SIRT1, 25 min, 25° C.
As to `O=C(Nc1cncc(OC[C@H](O)CO)c1)N1c2nc(-c3cccc(C(F)(F)F)c3)ncc2N2CC[C@H]1C2` [Example 35, (8S)—N-(5-((R)-2,3-dihydroxypropoxy)pyridin-3-yl)-2-(3-(trifluoromethyl)phenyl)-7,8-dihydro-5,8-methanopyrimido[4,5-b][1,4]diazepine-9(6H)-carboxamide], the “TRP Activity (EC1.5, concentration of compound required to increase SIRT1 activity by 50% over control)” value is recorded as “B (EC1.5 1-25 μM)” and the “TRP MAX RESP (percent maximum fold activation relative to control)” value was “A (Fold activation ≥150%)”. Take `Cc1ccc2c(NC(=O)N3c4nc(C(=O)NCC(F)(F)F)ncc4N4CCC[C@H]3C4)n[nH]c2n1` [Example 65, (9S)—N10-(6-methyl-1H-pyrazolo[3,4-b]pyridin-3-yl)-N2-(2,2,2-trifluoroethyl)-8,9-dihydro-6H-5,9-methanopyrimido[4,5-b][1,4]diazocine-2,10(7H)-dicarboxamide]: the “TRP Activity (EC1.5, concentration of compound required to increase SIRT1 activity by 50% over control)” value was “B (EC1.5 1-25 μM)” and the “TRP MAX RESP (percent maximum fold activation relative to control)” value was “A (Fold activation ≥150%)”. On the same counts, the results for `O=C(Nc1cnc(OC[C@H](O)CO)cn1)N1c2nc(-c3cccc(C(F)(F)F)c3)ncc2N2CC[C@H]1C2` [Example 18, (8S)—N-(5-((R)-2,3-dihydroxypropoxy)pyrazin-2-yl)-2-(3-(trifluoromethyl)phenyl)-7,8-dihydro-5,8-methanopyrimido[4,5-b][1,4]diazepine-9(6H)-carboxamide] are “B (EC1.5 1-25 μM)” and “A (Fold activation ≥150%)”. For the molecule `O=C(Nc1cc(OC[C@H](O)CO)ccn1)N1c2nc(-c3cccc(C(F)(F)F)c3)ncc2N2CC[C@H]1C2` [Example 33, (8S)—N-(4-((R)-2,3-dihydroxypropoxy)pyridin-2-yl)-2-(3-(trifluoromethyl)phenyl)-7,8-dihydro-5,8-methanopyrimido[4,5-b][1,4]diazepine-9(6H)-carboxamide], the “TRP Activity (EC1.5, concentration of compound required to increase SIRT1 activity by 50% over control)” value is recorded as “B (EC1.5 1-25 μM)” and the “TRP MAX RESP (percent maximum fold activation relative to control)” value is given as “A (Fold activation ≥150%)”. For `O=C(Nc1cc(OC[C@@H](O)CO)ccn1)N1c2nc(-c3cccc(C(F)(F)F)c3)ncc2N2CCC[C@H]1C2` [Example 91, (9S)—N-(4-((S)-2,3-dihydroxypropoxy)pyridin-2-yl)-2-(3-(trifluoromethyl)phenyl)-8,9-dihydro-6H-5,9-methanopyrimido[4,5-b][1,4]diazocine-10(7H)-carboxamide], the “TRP Activity (EC1.5, concentration of compound required to increase SIRT1 activity by 50% over control)” value is recorded as “A (EC1.5<1 μM)” and the “TRP MAX RESP (percent maximum fold activation relative to control)” value is reported as “A (Fold activation ≥150%)”.

As for `O=C(Nc1cncc(OC[C@@H](O)CO)c1)N1c2nc(-c3cccc(C(F)(F)F)c3)ncc2N2CC[C@H]1C2` [Example 24, (8S)—N-(5-((S)-2,3-dihydroxypropoxy)pyridin-3-yl)-2-(3-(trifluoromethyl)phenyl)-7,8-dihydro-5,8-methanopyrimido[4,5-b][1,4]diazepine-9(6H)-carboxamide], the “TRP Activity (EC1.5, concentration of compound required to increase SIRT1 activity by 50% over control)” value is reported as “B (EC1.5 1-25 μM)” and the “TRP MAX RESP (percent maximum fold activation relative to control)” value is given as “A (Fold activation ≥150%)”. With `Cc1cc(-c2ncc3c(n2)N(C(=O)Nc2cccnc2)[C@H]2CCCN3C2)ccn1` [Example 114, (9S)-2-(2-methylpyridin-4-yl)-N-(pyridin-3-yl)-8,9-dihydro-6H-5,9-methanopyrimido[4,5-b][1,4]diazocine-10(7H)-carboxamide], the “TRP Activity (EC1.5, concentration of compound required to increase SIRT1 activity by 50% over control)” value was “B (EC1.5 1-25 μM)” and the “TRP MAX RESP (percent maximum fold activation relative to control)” value is “A (Fold activation ≥150%)”.

For `O=C(Nc1cncc(OC[C@H](O)CO)n1)N1c2nc(-c3cccc(C(F)(F)F)c3)ncc2N2CCC[C@H]1C2` [Example 95, (9S)—N-(6-((R)-2,3-dihydroxypropoxy)pyrazin-2-yl)-2-(3-(trifluoromethyl)phenyl)-8,9-dihydro-6H-5,9-methanopyrimido[4,5-b][1,4]diazocine-10(7H)-carboxamide], the “TRP Activity (EC1.5, concentration of compound required to increase SIRT1 activity by 50% over control)” value is “A (EC1.5<1 μM)” and the “TRP MAX RESP (percent maximum fold activation relative to control)” value is “A (Fold activation ≥150%)”. As to `Cc1ccc(-c2ncc3c(n2)N(C(=O)Nc2ccccn2)[C@H]2CCN3C2)cn1` [Example 4, (8S)-2-(6-methylpyridin-3-yl)-N-(pyridin-2-yl)-7,8-dihydro-5,8-methanopyrimido[4,5-b][1,4]diazepine-9(6H)-carboxamide], the “TRP Activity (EC1.5, concentration of compound required to increase SIRT1 activity by 50% over control)” value is on record as “B (EC1.5 1-25 μM)”. With `O=C(Nc1ccnc(OC[C@@H](O)CO)c1)N1c2nc(-c3cccc(C(F)(F)F)c3)ncc2N2CC[C@H]1C2` [Example 32, (8S)—N-(2-((S)-2,3-dihydroxypropoxy)pyridin-4-yl)-2-(3-(trifluoromethyl)phenyl)-7,8-dihydro-5,8-methanopyrimido[4,5-b][1,4]diazepine-9(6H)-carboxamide], the “TRP Activity (EC1.5, concentration of compound required to increase SIRT1 activity by 50% over control)” value is listed as “A (EC1.5<1 μM)” and the “TRP MAX RESP (percent maximum fold activation relative to control)” value is “A (Fold activation ≥150%)”. On to `O=C(Nc1cccc(OC[C@@H](O)CO)n1)N1c2nc(-c3cccc(C(F)(F)F)c3)ncc2N2CC[C@H]1C2` [Example 31, (8S)—N-(6-((S)-2,3-dihydroxypropoxy)pyridin-2-yl)-2-(3-(trifluoromethyl)phenyl)-7,8-dihydro-5,8-methanopyrimido[4,5-b][1,4]diazepine-9(6H)-carboxamide], for which the “TRP Activity (EC1.5, concentration of compound required to increase SIRT1 activity by 50% over control)” value is on record as “A (EC1.5<1 μM)” and the “TRP MAX RESP (percent maximum fold activation relative to control)” value is listed as “A (Fold activation ≥150%)”. On to `CN(C)c1cc(-c2ncc3c(n2)N(C(=O)Nc2ccccn2)[C@H]2CCN3C2)ccn1` [Example 11, (8S)-2-(2-(dimethylamino)pyridin-4-yl)-N-(pyridin-2-yl)-7,8-dihydro-5,8-methano pyrimido[4,5-b][1,4]diazepine-9(6H)-carboxamide], for which the “TRP Activity (EC1.5, concentration of compound required to increase SIRT1 activity by 50% over control)” value was “B (EC1.5 1-25 μM)”.

On to `O=C(Nc1ccnc(OC[C@@H](O)CO)n1)N1c2nc(-c3cccc(C(F)(F)F)c3)ncc2N2CCC[C@H]1C2` [Example 79, (9S)—N-(2-((S)-2,3-dihydroxypropoxy)pyrimidin-4-yl)-2-(3-(trifluoromethyl)phenyl)-8,9-dihydro-6H-5,9-methanopyrimido[4,5-b][1,4]diazocine-10(7H)-carboxamide], for which the “TRP Activity (EC1.5, concentration of compound required to increase SIRT1 activity by 50% over control)” value is “A (EC1.5<1 μM)” and the “TRP MAX RESP (percent maximum fold activation relative to control)” value is “A (Fold activation ≥150%)”. Take `O=C(Nc1cnc(OC[C@@H](O)CO)nc1)N1c2nc(-c3cccc(C(F)(F)F)c3)ncc2N2CCC[C@H]1C2` [Example 102, (9S)—N-(2-((S)-2,3-dihydroxypropoxy)pyrimidin-5-yl)-2-(3-(trifluoromethyl)phenyl)-8,9-dihydro-6H-5,9-methanopyrimido[4,5-b][1,4]diazocine-10(7H)-carboxamide]: the “TRP Activity (EC1.5, concentration of compound required to increase SIRT1 activity by 50% over control)” value was “A (EC1.5<1 μM)” and the “TRP MAX RESP (percent maximum fold activation relative to control)” value was “A (Fold activation ≥150%)”. Turning to `CC(C)NC(=O)N1c2nc(-c3cccc(C(F)(F)F)c3)ncc2N2CC[C@H]1C2` [Example 30, (8S)—N-isopropyl-2-(3-(trifluoromethyl)phenyl)-7,8-dihydro-5,8-methanopyrimido[4,5-b][1,4]diazepine-9(6H)-carboxamide], the “TRP Activity (EC1.5, concentration of compound required to increase SIRT1 activity by 50% over control)” value is “B (EC1.5 1-25 μM)” and the “TRP MAX RESP (percent maximum fold activation relative to control)” value is recorded as “A (Fold activation ≥150%)”. With `O=C(Nc1ccnc(OC2CCOCC2)n1)N1c2nc(-c3cccc(C(F)(F)F)c3)ncc2N2CC[C@H]1C2` [Example 19, (8S)—N-(2-((tetrahydro-2H-pyran-4-yl)oxy)pyrimidin-4-yl)-2-(3-(trifluoromethyl)phenyl)-7,8-dihydro-5,8-methanopyrimido[4,5-b][1,4]diazepine-9(6H)-carboxamide], the “TRP Activity (EC1.5, concentration of compound required to increase SIRT1 activity by 50% over control)” value is listed as “B (EC1.5 1-25 μM)” and the “TRP MAX RESP (percent maximum fold activation relative to control)” value is “A (Fold activation ≥150%)”. On to `C[C@@H](NC(=O)c1ncc2c(n1)N(C(=O)Nc1cnc(OC[C@H](O)CO)cn1)[C@H]1CCCN2C1)C(F)(F)F` [Example 69], for which the “TRP Activity (EC1.5, concentration of compound required to increase SIRT1 activity by 50% over control)” value is “B (EC1.5 1-25 μM)” and the “TRP MAX RESP (percent maximum fold activation relative to control)” value is reported as “A (Fold activation ≥150%)”.

On to `C[C@@H](NC(=O)c1ncc2c(n1)N(C(=O)Nc1ccccn1)[C@H]1CCN2C1)C(F)(F)F` [Example 59, (8S)—N9-(pyridin-2-yl)-N2-((R)-1,1,1-trifluoropropan-2-yl)-7,8-dihydro-5,8-methanopyrimido[4,5-b][1,4]diazepine-2,9(6H)-dicarboxamide], for which the “TRP Activity (EC1.5, concentration of compound required to increase SIRT1 activity by 50% over control)” value is recorded as “A (EC1.5<1 μM)” and the “TRP MAX RESP (percent maximum fold activation relative to control)” value is given as “A (Fold activation ≥150%)”.
